Experiments:
Type in all cases: cell-based
[1] = system: Staphylococcus aureus (S. aureus); assay: Quantitative test of bacterial suspension, S. aureus; conditions: for Anti-bacteria ratio / Remaining bacteria: S. aureus, incubated 24 hours
Method: (§1) S. aureus, E. coli, MRSA and P. acnes were respectively prepared to form a suspension. The concentration of the suspension was about 1.5×10^8 CFU/ml (density=0.5 McFarland), and then was diluted 100 times (about 1.5×10^6 CFU/ml).
(§2) L-ascorbic acid solutions were prepared respectively in concentrations of 1 wt %, 5 wt %, 10 wt %, 15 wt %, 20 wt %, 25 wt % and 30 wt %. The different concentrations of L-ascorbic acid solutions were used as a test. A hydrochloric acid solution and distilled water were used respectively as a positive control and a negative control, and the pH value of the hydrochloric acid solution was the same of the pH value of the 25 wt % L-ascorbic acid solution.
(§3) 1 ml bacterial suspension was added to a 9 ml L-ascorbic acid solution for testing, and equal amounts of the bacterial suspension were added respectively to the positive control of 9 ml hydrochloric acid solution and the negative control of 9 ml distilled water, and then all solutions were incubated for 24 hours.
(§4) After incubating for 24 hours, all the solutions were series diluted, until diluted 1000 times to form a series of dilution solutions.
(§5) To calculate bacteria remaining in the solutions, 0.2 ml of each series of dilution solutions were cultured respectively on Petri dishes and repeated twice.
(§6) Each Petri dish was cultured in an incubator at 35±2° C. for 1˜2 days (S. aureus, E. coli) or for 2˜4 days (MRSA and P. acnes) to observe bacteria growth on Petri dish and the bacteria were counted.
(§7) Anti-bacterial ratio (%)=[(remaining bacteria of controls−remaining bacteria of test)/remaining bacteria of controls]×100%

[2] = system: Escherichia coli (E. coli); assay: Quantitative test of bacterial suspension, E. coli; conditions: for Anti-bacteria ratio / Remaining bacteria: E. coli, incubated 24 hours
Method: as §1, §2, §3, §4, §5, §6, §7

[3] = system: Methicillin-resistant Staphylococcus aureus (MRSA); assay: Quantitative test of bacterial suspension, MRSA; conditions: for Anti-bacteria ratio / Remaining bacteria: MRSA, incubated 24 hours
Method: as §1, §2, §3, §4, §5, §6, §7

[4] = system: Propionibacterium acnes (P. acnes); assay: Quantitative test of bacterial suspension, P. acnes; conditions: for Anti-bacteria ratio / Remaining bacteria: P. acnes, incubated 24 hours
Method: as §1, §2, §3, §4, §5, §6, §7

[5] = positive control solution, pH 1.68
[6] = 1 wt % to 30 wt % solution, incubating for 24 hours

`Cl` [Hydrochloric acid, reference compound] was tested, and the Anti-bacteria ratio [1, 5] was 99.99%, the Remaining bacteria [1, 5] was 18 CFU/mL and the Anti-bacteria ratio [2, 5] was 100%. The Remaining bacteria [2, 5] was 0 CFU/mL.

With `O=C1O[C@H]([C@@H](O)CO)C(O)=C1O` [L-ascorbic acid] the “remaining S. aureus found” value ([1]; 15 wt % to 30 wt % solution, incubating for 24 hours) was “no remaining”, the Anti-bacteria ratio ([1]; 1% solution, pH 2.70) was 99.72% and the Remaining bacteria ([1]; 1% solution, pH 2.70) was 2.5 × 10^4 CFU/mL. The Anti-bacteria ratio ([1]; 5% solution, pH 2.28) was 99.97%, the Remaining bacteria ([1]; 5% solution, pH 2.28) was 3.0 × 10^3 CFU/mL and the Anti-bacteria ratio ([1]; 10% solution, pH 2.05) was 99.99%. The Remaining bacteria ([1]; 10% solution, pH 2.05) was 2.0 × 10^2 CFU/mL, the Anti-bacteria ratio ([1]; 15% solution, pH 1.93) was 100% and the Remaining bacteria ([1]; 15% solution, pH 1.93) was 0 CFU/mL. It also gave an Anti-bacteria ratio ([1]; 20% solution, pH 1.80) of 100%, a Remaining bacteria ([1]; 20% solution, pH 1.80) of 0 CFU/mL and an Anti-bacteria ratio ([1]; 25% solution, pH 1.68) of 100%. It also gave a Remaining bacteria ([1]; 25% solution, pH 1.68) of 0 CFU/mL, an Anti-bacteria ratio ([1]; 30% solution, pH 1.59) of 100% and a Remaining bacteria ([1]; 30% solution, pH 1.59) of 0 CFU/mL. For the same compound, the “remaining E. coli found in the Petri dishes” value [2, 6] was “no remaining”, the Anti-bacteria ratio ([2]; 1% solution, pH 2.70) was 100% and the Remaining bacteria ([2]; 1% solution, pH 2.70) was 0 CFU/mL. For the same compound, the Anti-bacteria ratio ([2]; 5% solution, pH 2.28) was 100%, the Remaining bacteria ([2]; 5% solution, pH 2.28) was 0 CFU/mL and the Anti-bacteria ratio ([2]; 10% solution, pH 2.05) was 100%. For the same compound, the Remaining bacteria ([2]; 10% solution, pH 2.05) was 0 CFU/mL, the Anti-bacteria ratio ([2]; 15% solution, pH 1.93) was 100% and the Remaining bacteria ([2]; 15% solution, pH 1.93) was 0 CFU/mL. It also gave an Anti-bacteria ratio ([2]; 20% solution, pH 1.80) of 100%, a Remaining bacteria ([2]; 20% solution, pH 1.80) of 0 CFU/mL and an Anti-bacteria ratio ([2]; 25% solution, pH 1.68) of 100%. It also gave a Remaining bacteria ([2]; 25% solution, pH 1.68) of 0 CFU/mL, an Anti-bacteria ratio ([2]; 30% solution, pH 1.59) of 100% and a Remaining bacteria ([2]; 30% solution, pH 1.59) of 0 CFU/mL. The “remaining MRSA found” value ([3]; 5 wt % to 30 wt % solution, incubating for 24 hours) was “no remaining”, the Anti-bacteria ratio ([3]; 1% solution, pH 2.70) was 99.99% and the Remaining bacteria ([3]; 1% solution, pH 2.70) was 2.0 × 10^3 CFU/mL. The Anti-bacteria ratio ([3]; 5% solution, pH 2.28) was 100%, the Remaining bacteria ([3]; 5% solution, pH 2.28) was 0 CFU/mL and the Anti-bacteria ratio ([3]; 10% solution, pH 2.05) was 100%. It also gave a Remaining bacteria ([3]; 10% solution, pH 2.05) of 0 CFU/mL, an Anti-bacteria ratio ([3]; 15% solution, pH 1.93) of 100% and a Remaining bacteria ([3]; 15% solution, pH 1.93) of 0 CFU/mL. The Anti-bacteria ratio ([3]; 20% solution, pH 1.80) was 100%, the Remaining bacteria ([3]; 20% solution, pH 1.80) was 0 CFU/mL and the Anti-bacteria ratio ([3]; 25% solution, pH 1.68) was 100%. The Remaining bacteria ([3]; 25% solution, pH 1.68) was 0 CFU/mL, the Anti-bacteria ratio ([3]; 30% solution, pH 1.59) was 100% and the Remaining bacteria ([3]; 30% solution, pH 1.59) was 0 CFU/mL. For the same compound, the “remaining P. acnes found in the Petri dishes” value [4, 6] was “no remaining”, the Anti-bacteria ratio ([4]; 1% solution, pH 2.70) was 100% and the Remaining bacteria ([4]; 1% solution, pH 2.70) was 0 CFU/mL. For the same compound, the Anti-bacteria ratio ([4]; 5% solution, pH 2.28) was 100%, the Remaining bacteria ([4]; 5% solution, pH 2.28) was 0 CFU/mL and the Anti-bacteria ratio ([4]; 10% solution, pH 2.05) was 100%. The Remaining bacteria ([4]; 10% solution, pH 2.05) was 0 CFU/mL, the Anti-bacteria ratio ([4]; 15% solution, pH 1.93) was 100% and the Remaining bacteria ([4]; 15% solution, pH 1.93) was 0 CFU/mL. It also gave an Anti-bacteria ratio ([4]; 20% solution, pH 1.80) of 100%, a Remaining bacteria ([4]; 20% solution, pH 1.80) of 0 CFU/mL and an Anti-bacteria ratio ([4]; 25% solution, pH 1.68) of 100%. For the same compound, the Remaining bacteria ([4]; 25% solution, pH 1.68) was 0 CFU/mL, the Anti-bacteria ratio ([4]; 30% solution, pH 1.59) was 100% and the Remaining bacteria ([4]; 30% solution, pH 1.59) was 0 CFU/mL.
